The values that follow come from publication PMC4854315, “Discovery of a novel allosteric inhibitor-binding site in ERK5: comparison with the canonical kinase hinge ATP-binding site” (Acta Crystallographica. Section D, Structural Biology, 2016).

Holding throughout (experiment): Z'-LYTE kinase panel
What all share (format): biochemical

The target in one assay is T1, CDK1/cyclin B (Homo sapiens, UniProt P06493).
T1 construct: purchased ThermoFisher (SelectScreen, Z'-LYTE)
The method, boiled down:
(§1)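 Activity is reported as percent inhibition at one concentration, 10 µM, determined by the standard Z′-LYTE kinase assay across 225 panel kinases.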

The target of a further assay is T2, DNA-PK (Homo sapiens, UniProt P78527).
T2 construct: purchased ThermoFisher (SelectScreen, Z'-LYTE)
In short, it runs like this: as §1

The next assay deals with T3, RPS6KB1 (p70S6K) (Homo sapiens, UniProt P23443).
T3 construct: purchased ThermoFisher (SelectScreen, Z'-LYTE)
T3 sequence (P23443 whole entry): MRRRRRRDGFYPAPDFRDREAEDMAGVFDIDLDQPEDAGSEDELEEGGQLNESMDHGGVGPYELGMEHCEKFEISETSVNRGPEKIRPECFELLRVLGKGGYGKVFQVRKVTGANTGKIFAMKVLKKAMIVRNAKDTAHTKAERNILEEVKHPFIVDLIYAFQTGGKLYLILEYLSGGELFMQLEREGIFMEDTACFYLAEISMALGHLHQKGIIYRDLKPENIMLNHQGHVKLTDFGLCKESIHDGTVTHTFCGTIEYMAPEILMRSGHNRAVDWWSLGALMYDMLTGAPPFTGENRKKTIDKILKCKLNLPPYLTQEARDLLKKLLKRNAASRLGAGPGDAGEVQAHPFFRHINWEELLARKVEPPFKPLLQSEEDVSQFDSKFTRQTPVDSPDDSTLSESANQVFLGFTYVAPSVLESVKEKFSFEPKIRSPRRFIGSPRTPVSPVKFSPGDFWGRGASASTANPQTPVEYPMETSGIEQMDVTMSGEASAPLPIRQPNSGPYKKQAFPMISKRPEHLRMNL
In short, it runs like this: as §1

In a further assay the target is T4, PRKG2 (PKG2) (Homo sapiens, UniProt Q13237).
T4 construct: purchased ThermoFisher (SelectScreen, Z'-LYTE)
T4 sequence (Q13237 1-762): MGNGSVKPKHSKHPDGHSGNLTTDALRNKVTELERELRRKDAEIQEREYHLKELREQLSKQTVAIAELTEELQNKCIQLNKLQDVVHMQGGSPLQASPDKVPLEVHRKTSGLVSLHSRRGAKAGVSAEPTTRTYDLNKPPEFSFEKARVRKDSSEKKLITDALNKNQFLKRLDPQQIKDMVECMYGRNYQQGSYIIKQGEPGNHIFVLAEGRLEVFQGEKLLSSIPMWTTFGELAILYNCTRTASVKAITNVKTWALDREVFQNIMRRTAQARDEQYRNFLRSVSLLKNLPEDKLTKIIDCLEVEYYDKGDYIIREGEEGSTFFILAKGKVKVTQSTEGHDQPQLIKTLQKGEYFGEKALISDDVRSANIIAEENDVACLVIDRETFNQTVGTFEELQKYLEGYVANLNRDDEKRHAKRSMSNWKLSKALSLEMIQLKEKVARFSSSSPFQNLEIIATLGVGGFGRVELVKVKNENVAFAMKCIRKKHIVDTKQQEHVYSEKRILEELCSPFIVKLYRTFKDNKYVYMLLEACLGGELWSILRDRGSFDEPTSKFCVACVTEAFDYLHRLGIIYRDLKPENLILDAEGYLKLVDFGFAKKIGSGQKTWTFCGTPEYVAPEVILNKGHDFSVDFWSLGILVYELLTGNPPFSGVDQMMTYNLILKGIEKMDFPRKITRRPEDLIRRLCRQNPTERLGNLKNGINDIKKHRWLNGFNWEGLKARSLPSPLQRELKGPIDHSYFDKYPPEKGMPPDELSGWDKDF
The method, boiled down: as §1

Another assay concerns the target T5, ROCK2 (Homo sapiens, UniProt O75116).
T5 construct: purchased ThermoFisher (SelectScreen, Z'-LYTE)
The method, boiled down:
as §1

In the next assay the target is T6, SRMS (Srm) (Homo sapiens, UniProt Q9H3Y6).
T6 construct: purchased ThermoFisher (SelectScreen, Z'-LYTE)
The method, boiled down:
as §1

The target in the next assay is T7, MAP2K6 (MKK6) (Homo sapiens, UniProt P52564).
T7 construct: purchased ThermoFisher (SelectScreen, Z'-LYTE)
T7 sequence (P52564 1-334): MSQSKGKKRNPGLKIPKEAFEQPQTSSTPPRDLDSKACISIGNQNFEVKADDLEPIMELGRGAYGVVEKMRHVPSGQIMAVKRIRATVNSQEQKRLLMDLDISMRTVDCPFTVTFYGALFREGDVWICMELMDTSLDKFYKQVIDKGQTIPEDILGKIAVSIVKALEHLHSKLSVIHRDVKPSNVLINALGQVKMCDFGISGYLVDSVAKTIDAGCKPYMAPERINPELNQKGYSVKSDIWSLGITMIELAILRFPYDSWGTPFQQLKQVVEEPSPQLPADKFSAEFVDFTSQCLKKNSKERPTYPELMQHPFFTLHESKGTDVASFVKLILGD
As to conditions: 10 µM compound; ATP 100. In short, it runs like this: as §1

The next assay addresses T8, MELK (Homo sapiens, UniProt Q14680).
T8 construct: purchased ThermoFisher (SelectScreen, Z'-LYTE)
In short, it runs like this:
as §1

The target in the next assay is T9, CLK2 (Homo sapiens, UniProt P49760).
T9 construct: purchased ThermoFisher (SelectScreen, Z'-LYTE)
T9 sequence (P49760 whole entry): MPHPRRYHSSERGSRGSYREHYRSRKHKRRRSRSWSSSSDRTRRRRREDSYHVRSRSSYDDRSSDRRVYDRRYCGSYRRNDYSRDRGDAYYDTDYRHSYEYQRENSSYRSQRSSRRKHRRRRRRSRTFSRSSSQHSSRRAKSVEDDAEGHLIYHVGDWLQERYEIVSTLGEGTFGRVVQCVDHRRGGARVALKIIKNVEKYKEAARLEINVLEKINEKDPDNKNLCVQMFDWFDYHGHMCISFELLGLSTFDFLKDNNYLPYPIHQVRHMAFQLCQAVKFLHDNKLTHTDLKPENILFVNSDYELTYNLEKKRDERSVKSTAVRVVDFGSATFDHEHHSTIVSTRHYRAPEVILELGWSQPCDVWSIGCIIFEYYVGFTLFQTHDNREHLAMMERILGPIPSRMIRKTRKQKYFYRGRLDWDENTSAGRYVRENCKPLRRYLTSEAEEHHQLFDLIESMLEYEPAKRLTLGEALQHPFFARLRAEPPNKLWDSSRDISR
In short, it runs like this:
as §1

For another assay, the target named is T10, RPS6KA3 (RSK2) (Homo sapiens, UniProt P51812).
T10 construct: purchased ThermoFisher (SelectScreen, Z'-LYTE)
In short, it runs like this:
as §1

For a further assay, the target named is T11, LTK (TYK1) (Homo sapiens, UniProt P29376).
T11 construct: purchased ThermoFisher (SelectScreen, Z'-LYTE)
T11 sequence (P29376 17-864): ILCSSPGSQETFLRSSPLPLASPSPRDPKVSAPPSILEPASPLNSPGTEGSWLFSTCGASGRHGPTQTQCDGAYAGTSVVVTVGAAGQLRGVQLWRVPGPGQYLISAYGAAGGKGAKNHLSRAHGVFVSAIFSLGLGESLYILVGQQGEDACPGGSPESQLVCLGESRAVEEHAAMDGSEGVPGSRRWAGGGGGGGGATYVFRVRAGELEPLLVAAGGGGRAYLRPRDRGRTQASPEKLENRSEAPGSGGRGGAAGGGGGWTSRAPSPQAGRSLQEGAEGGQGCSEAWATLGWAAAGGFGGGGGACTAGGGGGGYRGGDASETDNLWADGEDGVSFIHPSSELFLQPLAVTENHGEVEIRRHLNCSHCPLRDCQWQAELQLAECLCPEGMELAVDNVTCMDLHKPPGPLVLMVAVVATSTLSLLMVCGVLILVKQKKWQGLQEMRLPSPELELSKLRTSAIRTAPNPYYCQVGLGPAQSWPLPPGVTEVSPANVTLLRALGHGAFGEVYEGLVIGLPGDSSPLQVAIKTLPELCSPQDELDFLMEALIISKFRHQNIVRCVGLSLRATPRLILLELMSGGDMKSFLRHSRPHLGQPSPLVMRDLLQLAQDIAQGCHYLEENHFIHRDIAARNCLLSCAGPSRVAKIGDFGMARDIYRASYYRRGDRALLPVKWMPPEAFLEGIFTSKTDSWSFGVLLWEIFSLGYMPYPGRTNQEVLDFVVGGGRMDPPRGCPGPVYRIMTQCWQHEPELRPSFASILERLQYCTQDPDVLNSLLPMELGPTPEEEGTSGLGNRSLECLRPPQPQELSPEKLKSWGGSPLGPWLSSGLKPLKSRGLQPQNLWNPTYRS
The method, boiled down: as §1

The next assay has as its target T12, AXL (Homo sapiens, UniProt P30530).
T12 construct: purchased ThermoFisher (SelectScreen, Z'-LYTE)
T12 sequence (P30530 26-894): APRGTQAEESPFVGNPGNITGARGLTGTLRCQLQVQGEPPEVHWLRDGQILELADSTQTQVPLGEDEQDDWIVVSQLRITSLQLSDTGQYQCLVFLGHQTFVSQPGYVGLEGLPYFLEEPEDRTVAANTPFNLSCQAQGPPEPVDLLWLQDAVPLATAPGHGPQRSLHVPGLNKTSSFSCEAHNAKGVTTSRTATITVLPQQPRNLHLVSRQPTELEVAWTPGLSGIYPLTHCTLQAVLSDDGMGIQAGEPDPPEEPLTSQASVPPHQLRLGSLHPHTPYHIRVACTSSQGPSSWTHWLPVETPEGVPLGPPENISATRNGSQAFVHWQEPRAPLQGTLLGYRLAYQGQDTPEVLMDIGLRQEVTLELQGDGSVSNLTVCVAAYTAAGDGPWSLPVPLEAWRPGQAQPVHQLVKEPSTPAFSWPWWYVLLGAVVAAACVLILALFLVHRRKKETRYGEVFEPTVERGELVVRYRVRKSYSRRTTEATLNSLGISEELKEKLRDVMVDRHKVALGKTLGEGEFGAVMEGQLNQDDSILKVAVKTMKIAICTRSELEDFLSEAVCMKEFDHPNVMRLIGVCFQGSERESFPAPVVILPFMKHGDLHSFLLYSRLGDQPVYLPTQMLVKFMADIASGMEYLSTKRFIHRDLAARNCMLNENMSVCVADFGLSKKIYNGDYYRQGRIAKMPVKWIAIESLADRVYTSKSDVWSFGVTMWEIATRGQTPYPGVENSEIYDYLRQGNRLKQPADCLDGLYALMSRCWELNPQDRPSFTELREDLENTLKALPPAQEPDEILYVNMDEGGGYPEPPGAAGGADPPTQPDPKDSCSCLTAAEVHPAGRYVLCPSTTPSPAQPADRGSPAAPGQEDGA
In short, it runs like this:
as §1

Another assay concerns the target T13, RET (Homo sapiens, UniProt P07949).
T13 construct: purchased ThermoFisher (SelectScreen, Z'-LYTE)
The method, boiled down:
as §1

T5 sequence (O75116 whole entry): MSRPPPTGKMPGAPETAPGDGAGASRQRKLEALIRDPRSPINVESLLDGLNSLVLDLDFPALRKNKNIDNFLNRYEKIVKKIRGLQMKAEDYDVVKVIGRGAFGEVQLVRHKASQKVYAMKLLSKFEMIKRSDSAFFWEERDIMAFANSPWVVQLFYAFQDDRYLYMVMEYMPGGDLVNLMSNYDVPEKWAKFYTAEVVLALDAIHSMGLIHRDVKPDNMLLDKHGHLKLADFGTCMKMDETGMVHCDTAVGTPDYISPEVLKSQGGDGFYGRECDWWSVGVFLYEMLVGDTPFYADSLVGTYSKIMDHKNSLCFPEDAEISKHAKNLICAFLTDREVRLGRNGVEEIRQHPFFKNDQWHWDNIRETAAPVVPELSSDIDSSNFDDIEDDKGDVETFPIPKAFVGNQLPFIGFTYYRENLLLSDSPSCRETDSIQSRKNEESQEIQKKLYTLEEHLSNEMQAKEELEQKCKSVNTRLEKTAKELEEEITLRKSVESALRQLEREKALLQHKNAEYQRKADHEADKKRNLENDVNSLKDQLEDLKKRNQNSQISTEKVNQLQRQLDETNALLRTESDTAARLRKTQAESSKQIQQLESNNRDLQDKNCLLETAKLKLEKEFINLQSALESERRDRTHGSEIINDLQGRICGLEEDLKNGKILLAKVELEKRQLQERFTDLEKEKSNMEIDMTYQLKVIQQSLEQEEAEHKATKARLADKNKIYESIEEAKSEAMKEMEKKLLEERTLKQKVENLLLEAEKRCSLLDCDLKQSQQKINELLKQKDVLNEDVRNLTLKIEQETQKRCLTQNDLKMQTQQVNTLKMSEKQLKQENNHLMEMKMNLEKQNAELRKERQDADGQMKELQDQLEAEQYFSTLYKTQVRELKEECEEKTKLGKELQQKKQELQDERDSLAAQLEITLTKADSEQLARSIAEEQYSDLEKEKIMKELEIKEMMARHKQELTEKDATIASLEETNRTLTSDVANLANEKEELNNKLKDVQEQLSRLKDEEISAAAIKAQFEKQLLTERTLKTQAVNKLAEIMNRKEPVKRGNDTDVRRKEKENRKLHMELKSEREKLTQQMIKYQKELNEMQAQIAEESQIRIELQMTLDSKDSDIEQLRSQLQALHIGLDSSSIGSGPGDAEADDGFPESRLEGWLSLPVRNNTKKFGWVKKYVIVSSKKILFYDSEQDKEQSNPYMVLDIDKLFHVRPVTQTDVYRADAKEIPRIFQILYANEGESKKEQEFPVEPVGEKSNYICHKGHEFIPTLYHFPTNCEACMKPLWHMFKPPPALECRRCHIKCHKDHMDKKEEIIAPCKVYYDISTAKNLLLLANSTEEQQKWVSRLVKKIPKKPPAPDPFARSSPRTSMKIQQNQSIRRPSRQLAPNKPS
T1 sequence (P06493 whole entry): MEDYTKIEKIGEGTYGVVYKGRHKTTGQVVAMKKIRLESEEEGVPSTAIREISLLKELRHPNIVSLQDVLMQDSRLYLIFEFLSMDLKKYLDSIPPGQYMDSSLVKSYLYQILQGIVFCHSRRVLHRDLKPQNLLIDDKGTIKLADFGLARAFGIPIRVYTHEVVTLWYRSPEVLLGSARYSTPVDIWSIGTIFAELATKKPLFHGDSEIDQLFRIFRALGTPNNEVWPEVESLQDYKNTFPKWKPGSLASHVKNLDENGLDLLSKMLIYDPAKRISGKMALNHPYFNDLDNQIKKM
T1 sequence (P14635 whole entry partner): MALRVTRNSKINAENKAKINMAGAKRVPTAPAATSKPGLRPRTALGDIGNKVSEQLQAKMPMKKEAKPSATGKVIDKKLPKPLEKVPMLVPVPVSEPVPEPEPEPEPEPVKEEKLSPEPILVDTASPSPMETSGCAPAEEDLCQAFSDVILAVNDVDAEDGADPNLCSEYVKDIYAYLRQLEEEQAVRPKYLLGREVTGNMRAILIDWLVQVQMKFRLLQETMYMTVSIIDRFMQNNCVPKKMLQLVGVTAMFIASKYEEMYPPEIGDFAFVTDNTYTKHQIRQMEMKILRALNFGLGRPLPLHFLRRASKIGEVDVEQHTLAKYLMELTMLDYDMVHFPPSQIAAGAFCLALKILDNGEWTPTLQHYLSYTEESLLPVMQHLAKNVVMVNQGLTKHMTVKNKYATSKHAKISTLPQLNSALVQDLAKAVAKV
T8 sequence (Q14680 whole entry): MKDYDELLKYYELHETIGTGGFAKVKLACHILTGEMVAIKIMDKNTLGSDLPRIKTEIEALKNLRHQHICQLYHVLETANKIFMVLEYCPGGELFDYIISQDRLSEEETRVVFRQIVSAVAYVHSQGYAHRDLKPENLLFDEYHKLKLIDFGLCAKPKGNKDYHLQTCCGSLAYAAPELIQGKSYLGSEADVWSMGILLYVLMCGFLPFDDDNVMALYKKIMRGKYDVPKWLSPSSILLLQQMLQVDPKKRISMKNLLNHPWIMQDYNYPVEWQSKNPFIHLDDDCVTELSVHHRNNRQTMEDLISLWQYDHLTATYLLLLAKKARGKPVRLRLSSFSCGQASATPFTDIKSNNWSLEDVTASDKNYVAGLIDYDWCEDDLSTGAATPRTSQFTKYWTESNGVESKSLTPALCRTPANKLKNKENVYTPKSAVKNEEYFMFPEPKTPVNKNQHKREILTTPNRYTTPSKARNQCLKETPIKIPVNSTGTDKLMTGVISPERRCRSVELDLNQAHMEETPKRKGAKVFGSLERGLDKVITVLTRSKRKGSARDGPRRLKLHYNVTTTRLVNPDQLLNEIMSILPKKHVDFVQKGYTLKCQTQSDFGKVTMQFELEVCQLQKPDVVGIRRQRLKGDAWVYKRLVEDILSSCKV

With “XMD8-92 [Compound 2, reference compound]”, the “CDK1/cyclin B % Inhibition” value on CDK1/cyclin B (10 µM compound, ATP Km app) is listed as 8.43%. Further, on DNA-PK (10 µM compound, ATP Km app), the “DNA-PK % Inhibition” value stood at 38%. Besides, the “RPS6KB1 (p70S6K) % Inhibition” value at RPS6KB1 (p70S6K) (10 µM compound, ATP Km app) was 5%. In addition, the “PRKG2 (PKG2) % Inhibition” value on PRKG2 (PKG2) (10 µM compound, ATP Km app) was 43%. The “ROCK2 % Inhibition” value at ROCK2 (10 µM compound, ATP Km app) came out at 93%. In addition, the “SRMS (Srm) % Inhibition” value on SRMS (Srm) (10 µM compound, ATP Km app) worked out at 21%. Besides, the “MAP2K6 (MKK6) % Inhibition” value at MAP2K6 (MKK6) is 8%. Moreover, the “MELK % Inhibition” value on MELK (10 µM compound, ATP Km app) is recorded as 80%. For the same compound, the “CLK2 % Inhibition” value at CLK2 (10 µM compound, ATP Km app) is 6%. The “RPS6KA3 (RSK2) % Inhibition” value at RPS6KA3 (RSK2) (10 µM compound, ATP Km app) was 98%. Also, on LTK (TYK1) (10 µM compound, ATP Km app), the “LTK (TYK1) % Inhibition” value came to 24%. Besides, on AXL (10 µM compound, ATP Km app), the “AXL % Inhibition” value is given as 3%. For the same compound, at RET (10 µM compound, ATP Km app), the “RET % Inhibition” value turned out to be 40%.

Broadly, the inhibition is the drop in the measured response relative to a control, in per cent. `Cc1cc(Nc2nc(N)nn2C(=O)NC(C)C)ccc1Cl` [Compound 5]: the inhibition at 10 µM was 56% on CDK1/cyclin B; 13% at DNA-PK; 7% against RPS6KB1 (p70S6K); -9% on PRKG2 (PKG2); 37% against ROCK2; 2.26% at SRMS (Srm). Further, the inhibition at 10 µM against MAP2K6 (MKK6) was -1.06%; against MELK, 4.73%; against CLK2, 39%; on RPS6KA3 (RSK2), 37%; at LTK (TYK1), 18%; against AXL it was 18%. On RET, the inhibition at 10 µM is 44%.

On to `Cc1ncc(-c2nc(Nc3ccc(C(=O)NCCN4CCCCC4)cc3)ncc2F)n1C(C)C` [Compound 3], for which the inhibition at 10 µM came to 96% at CDK1/cyclin B; 33% against DNA-PK; 87% at RPS6KB1 (p70S6K); 95% against PRKG2 (PKG2); 40% at ROCK2; 20% at SRMS (Srm). The inhibition at 10 µM came to 88% on MAP2K6 (MKK6); 100% on MELK; 92% against CLK2; 81% on RPS6KA3 (RSK2); 73% against LTK (TYK1); 95% against AXL. For the same compound, at RET, the inhibition at 10 µM came out at 95%.
